Test results: paper PMC7026418, “The kinase polypharmacology landscape of clinical PARP inhibitors” (Scientific Reports, 2020)
Where two headings read alike, the source gives them in different places. Each block holds one compound with its values, some of them ahead of it.

Tests used:
Test in all cases: biochemical
Design in all cases: DiscoveRx KINOMEscan active site-directed competition binding; percent of control kinase bound to immobilised ligand
[1] = biological target: MAP3K4 (Homo sapiens, UniProt Q9Y6R4)
[2] = biological target: CLK1 (Homo sapiens, UniProt P49759)
[3] = biological target: RET(V804M) (Homo sapiens, UniProt P07949, V804M)
[4] = biological target: T1, FLT3(D835Y) (Homo sapiens, UniProt P36888, D835Y)
T1 sequence (P36888 1-993 D835Y): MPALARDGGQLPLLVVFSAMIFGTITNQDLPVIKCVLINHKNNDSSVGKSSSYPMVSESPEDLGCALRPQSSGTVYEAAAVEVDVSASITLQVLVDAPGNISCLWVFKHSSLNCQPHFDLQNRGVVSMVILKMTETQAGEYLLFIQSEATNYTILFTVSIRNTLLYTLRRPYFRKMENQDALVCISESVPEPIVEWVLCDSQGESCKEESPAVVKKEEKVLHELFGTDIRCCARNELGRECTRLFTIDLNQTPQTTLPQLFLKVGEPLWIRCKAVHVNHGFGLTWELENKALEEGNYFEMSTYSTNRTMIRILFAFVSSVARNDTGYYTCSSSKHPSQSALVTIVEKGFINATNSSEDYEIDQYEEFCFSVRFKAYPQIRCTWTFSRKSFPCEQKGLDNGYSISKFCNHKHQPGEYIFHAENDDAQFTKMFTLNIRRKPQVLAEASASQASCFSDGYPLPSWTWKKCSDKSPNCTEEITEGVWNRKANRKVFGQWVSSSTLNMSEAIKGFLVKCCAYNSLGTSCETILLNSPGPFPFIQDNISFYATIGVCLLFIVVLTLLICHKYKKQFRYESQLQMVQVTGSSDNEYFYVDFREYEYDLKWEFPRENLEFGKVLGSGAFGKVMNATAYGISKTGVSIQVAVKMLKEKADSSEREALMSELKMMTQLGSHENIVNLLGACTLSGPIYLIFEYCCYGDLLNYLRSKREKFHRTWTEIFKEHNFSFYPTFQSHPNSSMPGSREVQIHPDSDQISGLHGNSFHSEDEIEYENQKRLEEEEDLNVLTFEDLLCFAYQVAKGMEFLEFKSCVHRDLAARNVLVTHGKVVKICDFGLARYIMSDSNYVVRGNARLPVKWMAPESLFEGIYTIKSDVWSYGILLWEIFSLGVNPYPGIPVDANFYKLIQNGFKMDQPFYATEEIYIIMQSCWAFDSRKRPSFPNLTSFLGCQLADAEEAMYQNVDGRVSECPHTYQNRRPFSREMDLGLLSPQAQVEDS

[5] = biological target: T2, DCAMKL3 (Homo sapiens, UniProt Q9C098)
T2 construct: gene DCLK3
T2 sequence (Q9C098 1-648): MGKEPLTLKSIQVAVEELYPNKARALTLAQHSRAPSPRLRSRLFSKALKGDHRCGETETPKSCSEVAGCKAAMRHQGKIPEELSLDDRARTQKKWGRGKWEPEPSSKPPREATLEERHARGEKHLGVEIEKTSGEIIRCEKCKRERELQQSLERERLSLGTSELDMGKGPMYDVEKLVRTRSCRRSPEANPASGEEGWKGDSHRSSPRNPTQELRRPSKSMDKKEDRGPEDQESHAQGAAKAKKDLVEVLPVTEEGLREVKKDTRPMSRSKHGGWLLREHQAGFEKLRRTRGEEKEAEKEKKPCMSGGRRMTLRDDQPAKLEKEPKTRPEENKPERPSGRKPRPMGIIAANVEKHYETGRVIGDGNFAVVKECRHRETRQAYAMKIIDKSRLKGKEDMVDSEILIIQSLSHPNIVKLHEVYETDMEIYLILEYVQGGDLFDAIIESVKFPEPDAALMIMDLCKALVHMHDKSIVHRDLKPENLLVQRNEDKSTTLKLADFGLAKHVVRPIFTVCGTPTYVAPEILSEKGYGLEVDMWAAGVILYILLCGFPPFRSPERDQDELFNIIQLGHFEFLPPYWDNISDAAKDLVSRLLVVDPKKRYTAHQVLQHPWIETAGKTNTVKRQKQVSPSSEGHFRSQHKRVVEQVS

[6] = biological target: T3, RPS6KA5(Kin.Dom.2-C-terminal) (Homo sapiens, UniProt O75582)
T3 construct: Kin.Dom.2-C-terminal

[7] = read-out: Niraparib (MK-4827) / %Ctrl @ 10000nM
[8] = read-out: Olaparib / %Ctrl @ 10000nM
[9] = read-out: Rucaparib / %Ctrl @ 10000nM, binding competition, % of control
[10] = read-out: Talazoparib (BMN 673) / %Ctrl @ 10000nM

Sequence of CLK1 (P49759 whole entry): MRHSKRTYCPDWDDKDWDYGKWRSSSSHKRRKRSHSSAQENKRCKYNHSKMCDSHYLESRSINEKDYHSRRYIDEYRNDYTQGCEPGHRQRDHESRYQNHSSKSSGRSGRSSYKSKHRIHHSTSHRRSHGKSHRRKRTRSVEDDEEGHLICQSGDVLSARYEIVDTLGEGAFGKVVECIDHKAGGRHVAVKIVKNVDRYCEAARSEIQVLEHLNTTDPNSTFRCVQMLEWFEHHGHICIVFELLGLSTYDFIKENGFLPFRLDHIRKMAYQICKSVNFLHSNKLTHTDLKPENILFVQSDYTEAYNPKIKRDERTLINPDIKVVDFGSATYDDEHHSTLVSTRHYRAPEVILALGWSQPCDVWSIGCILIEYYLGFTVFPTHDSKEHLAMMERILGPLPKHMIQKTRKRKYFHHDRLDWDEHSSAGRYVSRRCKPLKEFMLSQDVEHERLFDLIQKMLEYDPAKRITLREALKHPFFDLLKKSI
Sequence of MAP3K4 (Q9Y6R4 whole entry): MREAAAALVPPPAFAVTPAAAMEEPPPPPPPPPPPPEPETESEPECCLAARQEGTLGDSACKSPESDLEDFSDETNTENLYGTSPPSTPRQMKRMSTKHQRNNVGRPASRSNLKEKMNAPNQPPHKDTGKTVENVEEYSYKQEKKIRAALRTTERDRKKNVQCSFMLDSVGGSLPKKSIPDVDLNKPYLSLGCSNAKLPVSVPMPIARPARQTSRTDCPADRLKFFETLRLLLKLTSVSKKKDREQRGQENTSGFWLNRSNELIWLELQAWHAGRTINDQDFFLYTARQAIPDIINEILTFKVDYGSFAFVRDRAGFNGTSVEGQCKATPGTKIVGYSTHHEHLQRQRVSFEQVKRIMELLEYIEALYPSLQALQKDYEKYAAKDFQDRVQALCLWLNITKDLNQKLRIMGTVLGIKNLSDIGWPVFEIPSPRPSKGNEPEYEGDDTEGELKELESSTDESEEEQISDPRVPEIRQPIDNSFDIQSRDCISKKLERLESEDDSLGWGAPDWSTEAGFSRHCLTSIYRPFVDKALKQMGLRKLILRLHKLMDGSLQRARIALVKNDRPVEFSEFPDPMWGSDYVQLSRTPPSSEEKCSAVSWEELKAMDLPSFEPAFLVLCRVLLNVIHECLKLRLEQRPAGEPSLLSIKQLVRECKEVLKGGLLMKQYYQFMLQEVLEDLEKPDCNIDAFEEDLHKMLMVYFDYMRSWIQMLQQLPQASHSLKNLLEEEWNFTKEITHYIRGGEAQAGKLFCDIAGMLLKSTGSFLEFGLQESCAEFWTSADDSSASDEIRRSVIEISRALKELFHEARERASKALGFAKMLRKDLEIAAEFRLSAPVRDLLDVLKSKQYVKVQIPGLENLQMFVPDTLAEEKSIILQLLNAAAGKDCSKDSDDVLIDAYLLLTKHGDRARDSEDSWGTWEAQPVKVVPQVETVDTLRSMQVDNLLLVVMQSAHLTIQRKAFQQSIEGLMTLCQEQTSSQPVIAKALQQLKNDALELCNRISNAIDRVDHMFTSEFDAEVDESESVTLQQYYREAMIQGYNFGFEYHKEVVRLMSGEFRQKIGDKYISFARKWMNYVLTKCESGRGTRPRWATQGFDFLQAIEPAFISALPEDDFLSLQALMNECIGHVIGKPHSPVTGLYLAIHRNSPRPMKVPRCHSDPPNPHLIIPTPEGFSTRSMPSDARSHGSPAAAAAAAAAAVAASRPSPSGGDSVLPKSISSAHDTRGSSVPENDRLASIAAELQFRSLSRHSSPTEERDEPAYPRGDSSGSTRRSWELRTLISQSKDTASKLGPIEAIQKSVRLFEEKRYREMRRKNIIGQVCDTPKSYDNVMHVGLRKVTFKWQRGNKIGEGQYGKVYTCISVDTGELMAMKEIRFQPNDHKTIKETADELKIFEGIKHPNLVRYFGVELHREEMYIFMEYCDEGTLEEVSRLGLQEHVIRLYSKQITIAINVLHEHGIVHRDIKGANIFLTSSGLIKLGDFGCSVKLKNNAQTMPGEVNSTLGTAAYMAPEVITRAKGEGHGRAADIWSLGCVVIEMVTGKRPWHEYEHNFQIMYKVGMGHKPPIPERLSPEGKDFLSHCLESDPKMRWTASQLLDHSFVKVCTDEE
T3 sequence (O75582 whole entry): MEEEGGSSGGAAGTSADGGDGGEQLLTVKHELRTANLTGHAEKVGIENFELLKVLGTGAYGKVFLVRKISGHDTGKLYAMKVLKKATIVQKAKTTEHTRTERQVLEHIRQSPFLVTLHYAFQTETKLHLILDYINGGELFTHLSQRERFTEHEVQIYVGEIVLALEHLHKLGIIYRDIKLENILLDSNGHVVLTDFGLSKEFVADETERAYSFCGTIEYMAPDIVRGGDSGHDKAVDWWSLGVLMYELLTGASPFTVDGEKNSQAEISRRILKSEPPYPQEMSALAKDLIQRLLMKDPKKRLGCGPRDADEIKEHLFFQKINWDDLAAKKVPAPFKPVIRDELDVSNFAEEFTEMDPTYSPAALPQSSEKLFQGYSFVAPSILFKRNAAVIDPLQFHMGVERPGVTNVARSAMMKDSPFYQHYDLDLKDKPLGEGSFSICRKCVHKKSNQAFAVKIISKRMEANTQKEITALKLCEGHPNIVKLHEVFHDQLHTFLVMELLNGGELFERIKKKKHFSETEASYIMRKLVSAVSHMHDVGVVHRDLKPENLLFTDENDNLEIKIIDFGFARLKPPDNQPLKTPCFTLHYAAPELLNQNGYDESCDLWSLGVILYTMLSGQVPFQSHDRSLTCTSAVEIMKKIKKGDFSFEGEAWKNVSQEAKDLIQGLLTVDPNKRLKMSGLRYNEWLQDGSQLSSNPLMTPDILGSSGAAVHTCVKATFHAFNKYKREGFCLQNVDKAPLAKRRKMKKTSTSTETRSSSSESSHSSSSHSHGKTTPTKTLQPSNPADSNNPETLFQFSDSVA
Sequence of RET(V804M) (P07949 whole entry V804M): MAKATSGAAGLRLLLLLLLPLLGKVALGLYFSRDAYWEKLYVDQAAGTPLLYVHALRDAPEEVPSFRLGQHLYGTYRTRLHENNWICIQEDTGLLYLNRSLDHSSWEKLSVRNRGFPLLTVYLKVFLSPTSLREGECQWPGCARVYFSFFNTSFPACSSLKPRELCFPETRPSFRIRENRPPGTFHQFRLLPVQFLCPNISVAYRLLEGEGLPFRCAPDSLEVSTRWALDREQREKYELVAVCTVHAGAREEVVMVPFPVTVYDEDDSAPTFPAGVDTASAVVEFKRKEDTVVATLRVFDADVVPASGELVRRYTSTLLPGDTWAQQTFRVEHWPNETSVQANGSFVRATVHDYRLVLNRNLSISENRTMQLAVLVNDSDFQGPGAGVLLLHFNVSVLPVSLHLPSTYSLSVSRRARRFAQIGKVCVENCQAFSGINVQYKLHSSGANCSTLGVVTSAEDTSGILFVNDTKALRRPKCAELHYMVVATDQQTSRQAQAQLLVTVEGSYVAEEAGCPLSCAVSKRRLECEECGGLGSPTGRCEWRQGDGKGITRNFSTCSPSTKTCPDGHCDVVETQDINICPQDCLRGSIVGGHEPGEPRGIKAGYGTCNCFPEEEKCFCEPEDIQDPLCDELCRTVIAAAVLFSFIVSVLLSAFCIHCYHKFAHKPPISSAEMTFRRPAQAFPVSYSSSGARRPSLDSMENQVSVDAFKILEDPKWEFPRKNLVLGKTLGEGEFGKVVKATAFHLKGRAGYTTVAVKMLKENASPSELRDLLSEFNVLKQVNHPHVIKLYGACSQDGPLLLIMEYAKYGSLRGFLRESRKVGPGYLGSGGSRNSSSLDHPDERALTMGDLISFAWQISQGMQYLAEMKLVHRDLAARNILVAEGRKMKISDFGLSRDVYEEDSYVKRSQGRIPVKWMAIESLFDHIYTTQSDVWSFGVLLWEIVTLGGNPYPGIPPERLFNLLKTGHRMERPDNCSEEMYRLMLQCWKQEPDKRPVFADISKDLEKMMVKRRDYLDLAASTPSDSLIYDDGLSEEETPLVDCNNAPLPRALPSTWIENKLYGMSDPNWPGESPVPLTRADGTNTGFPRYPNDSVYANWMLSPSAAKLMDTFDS

SMILES: NC(=O)c1cccc2cn(-c3ccc([C@@H]4CCCNC4)cc3)nc12 [Niraparib]
percent of control binding at 10 µM [1, 7]: 94% | percent of control binding at 10 µM [2, 7]: 48% | percent of control binding at 10 µM [3, 7]: 79% | percent of control binding at 10 µM [4, 7]: 54% | percent of control binding at 10 µM [5, 7]: 85% | percent of control binding at 10 µM [6, 7]: 96%

percent of control binding at 10 µM [1, 8]: 100% | percent of control binding at 10 µM [2, 8]: 99% | percent of control binding at 10 µM [3, 8]: 90% | percent of control binding at 10 µM [4, 8]: 87% | percent of control binding at 10 µM [5, 8]: 88% | percent of control binding at 10 µM [6, 8]: 97%
SMILES: O=C(c1cc(Cc2n[nH]c(=O)c3ccccc23)ccc1F)N1CCN(C(=O)C2CC2)CC1 [Olaparib]

percent of control binding at 10 µM [1, 9]: 100% | percent of control binding at 10 µM [2, 9]: 37% | percent of control binding at 10 µM [3, 9]: 99% | Rucaparib / %Ctrl @ 10000nM ([4]; binding competition, % of control): 24% | percent of control binding at 10 µM [5, 9]: 44% | percent of control binding at 10 µM [6, 9]: 77%
SMILES: CNCc1ccc(-c2[nH]c3cc(F)cc4c3c2CCNC4=O)cc1 [Rucaparib]

percent of control binding at 10 µM [1, 10]: 90% | percent of control binding at 10 µM [2, 10]: 86% | percent of control binding at 10 µM [3, 10]: 97% | percent of control binding at 10 µM [4, 10]: 96% | percent of control binding at 10 µM [5, 10]: 100% | percent of control binding at 10 µM [6, 10]: 80%
SMILES: Cn1ncnc1[C@H]1c2n[nH]c(=O)c3cc(F)cc(c23)N[C@@H]1c1ccc(F)cc1 [Talazoparib]
